We go through 13 compounds from ChEMBL document CHEMBL1135098, “Design, synthesis and evaluation of substituted phenylpropanoic acid derivatives as peroxisome proliferator-activated receptor (PPAR) activators: novel human PPARalpha-selective activators” (Bioorg Med Chem Lett, 2002).

Assay [1] addresses T1, Peroxisome proliferator-activated receptor gamma (Homo sapiens, UniProt P37231).
T1 sequence (P37231 whole entry): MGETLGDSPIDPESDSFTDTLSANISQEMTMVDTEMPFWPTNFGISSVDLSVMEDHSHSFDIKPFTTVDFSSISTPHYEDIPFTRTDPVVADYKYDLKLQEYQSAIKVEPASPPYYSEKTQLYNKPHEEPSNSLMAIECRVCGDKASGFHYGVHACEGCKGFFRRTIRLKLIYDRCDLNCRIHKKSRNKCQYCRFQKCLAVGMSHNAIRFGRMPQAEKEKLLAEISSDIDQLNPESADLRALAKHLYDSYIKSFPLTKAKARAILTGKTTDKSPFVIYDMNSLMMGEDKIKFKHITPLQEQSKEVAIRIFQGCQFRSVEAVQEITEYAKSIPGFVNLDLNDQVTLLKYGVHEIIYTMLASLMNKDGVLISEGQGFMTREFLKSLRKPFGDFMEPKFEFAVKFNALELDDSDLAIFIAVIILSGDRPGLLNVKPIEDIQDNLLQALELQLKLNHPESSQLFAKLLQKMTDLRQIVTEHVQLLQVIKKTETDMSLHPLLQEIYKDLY
As to the kind of experiment: […] of human Peroxisome proliferator activated receptor gamma in CHO-K1 cells;ia means inactive at 10 uM. It counts as cell-based.

The target of assay [2] is T2, Peroxisome proliferator-activated receptor alpha (Homo sapiens, UniProt Q07869).
T2 sequence (Q07869 whole entry): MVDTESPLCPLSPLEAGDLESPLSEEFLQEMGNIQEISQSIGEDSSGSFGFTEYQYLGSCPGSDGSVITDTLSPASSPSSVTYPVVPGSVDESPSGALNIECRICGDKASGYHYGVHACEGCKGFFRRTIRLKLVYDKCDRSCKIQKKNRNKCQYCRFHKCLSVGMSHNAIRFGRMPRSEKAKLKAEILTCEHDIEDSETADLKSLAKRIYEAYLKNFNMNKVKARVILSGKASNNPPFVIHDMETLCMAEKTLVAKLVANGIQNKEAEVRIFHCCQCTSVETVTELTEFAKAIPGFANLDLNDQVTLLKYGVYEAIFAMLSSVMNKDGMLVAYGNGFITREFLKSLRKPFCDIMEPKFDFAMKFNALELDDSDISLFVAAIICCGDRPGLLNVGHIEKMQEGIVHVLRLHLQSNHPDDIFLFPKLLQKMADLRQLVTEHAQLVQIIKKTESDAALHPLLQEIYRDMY
The assay is described as follows: Concentration of compound that affords half-maximum transactivation of human Peroxisome proliferator activated receptor alpha in CHO-K1 cells was determined in vitro;ia means inactive at 10 uM. It counts as cell-based.

The target of assay [3] is T2, Peroxisome proliferator-activated receptor alpha. The assay is described as follows: Transactivation of human Peroxisome proliferator activated receptor alpha expressed in CHO-K1 cells. It counts as cell-based.
The target in assay [4] is T1, Peroxisome proliferator-activated receptor gamma.
Description: Concentration of compound that affords half-maximum transactivation of human Peroxisome proliferator activated receptor gamma in CHO-K1 cells was determined in vitro

Where only a bound is given, the exact number is not on record here.

As for `COc1ccc(CC(OC)C(=O)O)cc1C(=O)NCc1ccc(C(F)(F)F)cc1` (stereo not drawn), the EC50 result in assay [1] is “Not Active”.

For the compound `COc1ccc(CC(C)(C)C(=O)O)cc1C(=O)NCc1ccc(C(F)(F)F)cc1`, the concentration giving a half-maximal response (EC50) result in assay [1] was “Not Active”.

Consider `COc1ccc(CC(C(=O)O)c2ccccc2)cc1C(=O)NCc1ccc(C(F)(F)F)cc1` (stereo not drawn), for which the EC50 result in assay [1] and in assay [2] was “Not Active” throughout.

On to `COc1ccc(CC(C)C(=O)O)cc1C(=O)NCc1ccc(C(F)(F)F)cc1` (stereo not drawn), for which, in assay [1], the EC50 entry is on record as “Not Active”.

For `COc1ccc(CCC(=O)O)cc1C(=O)NCc1ccc(C(F)(F)F)cc1`, the EC50 entry in assay [1] is “Not Active”.

`COc1ccc(C(=O)O)cc1C(=O)NCc1ccc(C(F)(F)F)cc1`: the EC50 entry in assay [1] and in assay [2] was “Not Active” each time.

Regarding `COc1ccc(CCCC(=O)O)cc1C(=O)NCc1ccc(C(F)(F)F)cc1`, the EC50 in assay [3] worked out at 2.2 µM; in assay [4] it was 3 µM.

With `CCC(CC)(Cc1ccc(OC)c(C(=O)NCc2ccc(C(F)(F)F)cc2)c1)C(=O)O`, the EC50 entry in assay [1] is “Not Active”.

The compound `CC(C)(Oc1ccc(CCNC(=O)c2ccc(Cl)cc2)cc1)C(=O)O` [BEZAFIBRATE] came in with an EC50 in assay [4] greater than 137 µM.

Take `COc1ccc(CC(C(=O)O)C(C)C)cc1C(=O)NCc1ccc(C(F)(F)F)cc1` (stereo not drawn): the EC50 entry in assay [1] is “Not Active”.

In the case of `COc1ccc(CC(Oc2ccccc2)C(=O)O)cc1C(=O)NCc1ccc(C(F)(F)F)cc1` (stereo not drawn), the EC50 result in assay [1] and in assay [2] was “Not Active” throughout.

`CCCC(Cc1ccc(OC)c(C(=O)NCc2ccc(C(F)(F)F)cc2)c1)C(=O)O` (stereo not drawn): in assay [1], the EC50 result is reported as “Not Active”.

In the case of `COc1ccc(CC(=O)O)cc1C(=O)NCc1ccc(C(F)(F)F)cc1`, the EC50 entry in assay [1] and in assay [2] was “Not Active” throughout.

Usually EC50 stands for the concentration that produces a half-maximal response. Low values mean higher potency in that assay, high ones lower potency in that assay.
